Results from PMC10973839, “CHF6297: a novel potent and selective p38 MAPK inhibitor with robust anti-inflammatory activity and suitable for inhaled pulmonary administration as dry powder” (Frontiers in Pharmacology, 2024).
Like-named read-outs stand apart in the source and are kept apart here.

Tests used:
[1] = biological target: rat p38α (Rattus norvegicus, UniProt P70618); assay: AlphaScreen kinase activity assay, rat p38α; format: biochemical
[2] = biological target: T1, human p38α (Homo sapiens, UniProt Q16539); assay: KINOMEscan competition binding assay (DiscoverX), p38α; conditions: read-out: Kd (mean ± s.d.)
T1 construct: purchased DiscoverX
T1 sequence (Q16539 whole entry): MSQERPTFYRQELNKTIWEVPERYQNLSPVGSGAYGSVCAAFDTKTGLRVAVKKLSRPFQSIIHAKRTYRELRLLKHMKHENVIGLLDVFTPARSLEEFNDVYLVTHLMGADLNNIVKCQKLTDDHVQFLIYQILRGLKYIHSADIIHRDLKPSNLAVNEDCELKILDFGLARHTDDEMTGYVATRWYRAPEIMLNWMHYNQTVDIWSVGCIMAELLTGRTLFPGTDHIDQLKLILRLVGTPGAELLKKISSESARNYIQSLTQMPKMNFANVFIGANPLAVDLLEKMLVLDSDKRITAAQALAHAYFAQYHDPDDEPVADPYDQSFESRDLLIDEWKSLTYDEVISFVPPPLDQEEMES
Description: (§1) The KINOMEscan® platform (DiscoverX) was used, which uses a novel and proprietary active site-directed competition binding assay to quantitatively measure the interactions between human p38 isoforms and the target compound.

[3] = biological target: T2, human p38β (Homo sapiens, UniProt Q15759); assay: KINOMEscan competition binding assay (DiscoverX), p38β; conditions: read-out: Kd (mean ± s.d.)
T2 construct: purchased DiscoverX
T2 sequence (Q15759 whole entry): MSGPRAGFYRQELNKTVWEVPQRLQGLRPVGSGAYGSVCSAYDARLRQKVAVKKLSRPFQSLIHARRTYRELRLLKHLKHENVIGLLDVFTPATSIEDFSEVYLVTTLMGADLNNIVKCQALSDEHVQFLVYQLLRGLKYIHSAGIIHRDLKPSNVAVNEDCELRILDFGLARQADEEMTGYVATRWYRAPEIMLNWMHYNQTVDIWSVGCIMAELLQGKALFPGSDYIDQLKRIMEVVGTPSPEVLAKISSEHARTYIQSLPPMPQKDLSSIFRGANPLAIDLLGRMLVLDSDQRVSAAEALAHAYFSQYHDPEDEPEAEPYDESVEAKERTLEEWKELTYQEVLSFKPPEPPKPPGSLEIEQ
Description: as §1

[4] = test system: IL-1β-induced neutrophil influx and IL-6 in BALF; assay: IL-1β-induced neutrophilia and IL-6 accumulation in BALF of rats; format: in vivo; conditions: for ED50: Rattus norvegicus, Neutrophil
Experimental: IL-1β is a potent proinflammatory agent that markedly induces lung neutrophilia when administered intratracheally in rats, and p38α MAPK is involved in IL-1β signaling in lung cells ([Laporte et al., 2000]). The dose–response curve and anti-inflammatory duration of action studies were carried out by delivering CHF6297 intratracheally through the DP-4M PennCentury insufflator as micronized dry powder (blended with lactose) at the doses of 0.1, 0.35, and 1 mg/kg, 1 h or 24 h before IL-1β challenge. Four hours after IL-1β challenge, BALF was collected for cell counting and IL-6 quantification.
For the experimental studies performed with IL-1β challenge, the first aliquot of BALF was centrifuged separately: the resulting supernatant was frozen at −80°C for IL-6 ELISA analysis.
Frozen cell-free BALFs were analyzed using an ELISA kit purchased from R&D Systems (Rat IL-6 ELISA Kit; Cat. No. SR6000B, Lot. 307537), according to the manufacturer’s instructions.

[5] = Inhalation pharmacokinetics in rats; format: in vivo, male Wistar rats; conditions: for Lung Cmax: 30-min nose-only inhalation; for Plasma Tmax: IAD: immediately after dosing; for Lung Tmax: IAD: immediately after dosing (5 min after end of exposure); for half-life: lung, read-out: Lung t1/2 (converted); for Cmax / AUC(0-t): plasma; for AUC(0-t): read-out: Plasma AUClast
Experimental: Inhalation pharmacokinetics (PK) of CHF6297 as micronised dry powder blended with lactose 20% w/w was investigated in male Wistar rats at 2 dose levels (0.1 and 1 mg/kg) using the nose-only inhalation delivery system (Figure 8). For each PK study, 21 rats were placed in suitable plastic restrainers and connected to the inhalation tower. Inhalation system parameters were set to achieve a nominal dose of 0.1 mg/kg and 1 mg/kg in 30 min of exposure. The particle size and actual dose are given in Supplementary Material (Table 2). At the end of the inhalation period, the animals were returned to their cages. […] Then, lung samples were immediately excised, externally washed with cold saline, accurately weighed, homogenized using a temperature-controlled Precellys homogenizer (Bertin Technologies, France), and stored at −80 °C until analysis.
Plasma and lung samples were analyzed by using an HPLC-MS/MS system, consisting of a 4000 QTRAP mass spectrometer (AB Sciex LLC, Framingham, MA, United States) with an electrospray ionization (ESI) source, coupled to an Agilent 1100 HPLC (Agilent Technologies, Santa Clara, CA, United States). Analyte separation was performed using a Gemini C18 column (Phenomenex Inc., Torrance, CA, United States) and water with 0.1% v/v AcOH in the gradient with acetonitrile with 0.1% v/v AcOH as eluents. Sample preparation was performed by protein precipitation using preassembled filtration devices (Mini-UniPrep Syringeless Filters, 0.45 µm PTFE, Whatman, GE Healthcare, Buckinghamshire, United Kingdom). Aliquots of 50 μL of the sample (plasma or homogenate) were transferred to the bottom part of the device, spiked with 10 μL of the appropriate internal standard solution, and 150 μL of acetonitrile was added. The calibration and quality control samples were prepared by adding 10 µL of the CHF6297 working standard solution in acetonitrile to 50 µL of the blank matrix. After vortex mixing, the obtained mixture was filtered by manual compression of the device, and the filtered solution was diluted with 100 μL of water. The Mini-UniPrep devices were directly placed in the autosampler rack of the HPLC system. Pharmacokinetic evaluation and parameter determination (Cmax, Tmax, AUClast, and t1/2) were performed with Phoenix 64 software (Certara, New Jersey, United States) using non-compartmental analysis. Since the actual dose was within ±5% of the nominal one, the nominal dose was used for PK calculation.

[6] = 0.35 mg/kg i.t., 24 h before IL-1β
[7] = 1 mg/kg i.t., 24 h before IL-1β
[8] = male, Wistar, rat, inhaled or intranasal, 0.1 mg/kg
[9] = male, Wistar, rat, inhaled or intranasal, 1.0 mg/kg

Chain of rat p38α (P70618 whole entry): as the sequence (Q16539 whole entry) above, with I17V, L48H, T263A, D321E, L332F counted along it

SMILES: C[C@H]1CCCCN1c1nnc2ccc(O[C@@H]3CC[C@H](NC(=O)Nc4cc(C(C)(C)C)nn4-c4cnn(CCN(C)C)c4)c4ccccc43)cn12 [CHF6297]
- IC50 fold-difference vs. human p38α [1]: 3.5
- IC50 ([1]; n = 3, read-out: IC50 (mean ± s.d.)): 0.5 ± 0.18 nM
- Kd [2]: 0.24 ± 0.06 nM
- Kd [3]: 1.11 ± 0.6 nM
- IL-6 concentration in BAL fluid ([4]; 0.1 mg/kg i.t., 1 h before IL-1β): 791 ± 131 pg/mL
- IL-6 concentration in BAL fluid ([4]; 0.35 mg/kg i.t., 1 h before IL-1β): 302 ± 58.34 pg/mL
- IL-6 concentration in BAL fluid [4, 6]: 1,101 ± 253 pg/mL
- neutrophils in BALF [4, 6]: 5.5 × 10^6 ± 814 neutrophils
- neutrophils in BALF ([4]; 1 mg/kg i.t. dry powder, 1 h before IL-1β): 2.3 × 10^6 ± 234 neutrophils
- IL-6 concentration in BAL fluid ([4]; 1 mg/kg i.t., 1 h before IL-1β): 404 ± 108 pg/mL
- IL-6 concentration in BAL fluid [4, 7]: 337 ± 84 pg/mL
- neutrophils in BALF [4, 7]: 2.98 × 10^6 ± 62 neutrophils
- ED50 ([4]; i.t. dry powder, 1 h before IL-1β, read-out: ED50, IL-1β-induced neutrophil influx): 0.22 mg/kg
- ED50 ([4]; i.t., IL-1β challenge, read-out: ED50, increase in IL-6 levels in BALF): 0.82 mg/kg
- Lung AUClast ([5]; 0.1 mg/kg): 42,097 h*ng/g
- Lung Cmax ([5]; 0.1 mg/kg): 7,187 ng/g
- Plasma Tmax ([5]; 0.1 mg/kg): IAD
- Lung Tmax ([5]; 0.1 mg/kg): IAD
- Lung Cmax ([5]; 1.0 mg/kg): 54,000 ng/g
- Plasma Tmax ([5]; 1.0 mg/kg): IAD
- Lung Tmax ([5]; 1.0 mg/kg): IAD
- half-life [5, 8]: 10.2 h
- half-life [5, 9]: 10.2 h
- half-life ([5]; male, Wistar, rat, inhaled, 0.1 mg/kg): 10 h
- half-life ([5]; male, Wistar, rat, inhaled, 1.0 mg/kg): 10 h
- Kp ([5]; male, Wistar, rat, lung/plasma, inhaled, at the two dose levels (0.1 and 1 mg/kg), read-out: lung/plasma ratio (AUClast lung / AUClast plasma)): ~6000
- Cmax [5, 8]: 0.00277 µg/mL
- AUC(0-t) [5, 8]: 0.00732 µg·h/mL
- Cmax [5, 9]: 0.0206 µg/mL
- AUC(0-t) [5, 9]: 0.0601 µg·h/mL
